What was measured:
Human DNMT1 = biological target: T1, Human DNMT1 (Homo sapiens, UniProt P26358); experiment: DNMT1 enzymatic activity inhibition, radioisotope-based 3H-SAM filter binding assay; format: biochemical; conditions: 1 μM SAM, 25 nM DNMT1, 0.005 mg/ml Poly(dI-dC), 30° C. 1 hour, 10-dose
T1 construct: a-a 2-1632, with N-terminal GST tag; GST (N)
Method: The inhibition of the enzymatic activity of DNMT1 was tested using low volume radioisotope-based assay which uses tritium-labeled AdoMet (^3H-SAM) as a methyl donor. Inhibitors diluted in DMSO were added by using acoustic technology (Echo550, Labcyte Inc. Sunnyvale, Calif.) into enzyme/substrate mixture in nano-liter range. The reaction was initiated by the addition of ^3H-SAM, and incubated at 30° C. for 1 hour. Total final methylations on the substrate poly(dI-dC) were detected by a filter binding approach. Data analysis was performed using GraphPad Prism software (La Jolla, Calif.) for IC50 curve fits.

MCF-7 = experiment: Cancer cell growth inhibition, MCF-7; format: cell-based; conditions: Homo sapiens, MCF7; Breast, MCF-7, cell viability, 72 h
Method: (§1) Cell culture-based assays were used to evaluate the ability of compounds of the invention to inhibit cancer cell growth inhibition.
(§2) Cells were obtained from the American Type Culture Collection (ATCC) and European Collection of Cell Cultures (ECACC).
(§3) Cells were thawed in their appropriate media plus supplements (see table below). Cells were passaged at confluence by washing once in HBSS cation-free followed by a 3 minutes incubation with trypsin ([0.5 μg/ml]/EDTA [0.2 μg/ml]) (Gibco-BRL, 15400054) solution in HBSS at 37° C. (except non-adherent cell lines), and transferred to their appropriate media plus supplements. Prior to seeding at defined cell concentration, cells were recovered in medium, centrifuged and taken up in medium, and counted.
(§4) Cells were plated at 3000/5000/10000 cells/well in 100 μl media in tissue culture 96 well plates (Cultek). After 24 h, media was supplemented by 100 μl/well of diluted IPDNs at 100 μM.
(§5) The Hexosaminidase assay was used for the adherent cell lines, whereas the AlamarBlue® assay was used for the non-adherent cell lines.
(§6) Dose-response curves were generated by serial dilutions (1:1) of the compounds. […] Reagent blanks, containing media plus colorimetric reagent without cells were run on each plate. Blank values were subtracted from test values and were routinely 5-10% of uninhibited control values. Plates were incubated 72 h, and living cell number was determined by AlamarBlue® and Hexosaminidase test. The advantages of using those assays are that both can be done in the same microwell plate. AlamarBlue® assay: plates were incubated 72 h and living cell number was determined by AlamarBlue (Biosource DAL1100). After 4 h incubation at 37° C., relative fluorescent intensity, which correlates with the number of living cells, was read in a Cytofluor plate reader (Millipore) at 535/590 nm (Excitation/emission). The hexosaminidase activity was measured according to the following protocol: the media was removed and cells were washed once with PBS.
(§7) Data analysis was done by calculating the percentage of cell viability normalized in front of negative control values, which were considered as a 100%. The curve was adjusted using a sigmoidal dose-response (variable slope) equation and EC50 values were obtained from the equation
(§8) where, X is the logarithm of concentration. Y is the response. Bottom is the Y value at the bottom plateau Top is the Y value at the top plateau LogEC50 is the X value when the response is halfway between Bottom and Top. With different kinds of variables, this variable is sometimes called ED50 (effective dose, 50%), or IC50 (inhibitory concentration, 50%, used when the curve goes downhill).

SK-BR-3 = experiment: Cancer cell growth inhibition, SK-BR-3; format: cell-based; conditions: Homo sapiens; Breast, SK-BR-3, cell viability, 72 h
Method: as §1, §2, §3, §4, §5
as §6, with “PBS. […]” for “PBS.”

LnCaP = experiment: Cancer cell growth inhibition, LnCaP; format: cell-based; conditions: Homo sapiens, Prostate, cell viability, 72 h
Method: as §1, §2, §3, §4, §5, §6, §7, §8

HCT-116 = experiment: Cancer cell growth inhibition, HCT-116; format: cell-based; conditions: Homo sapiens; Colorectal, HCT-116, cell viability, 72 h
Method: as §1, §2, §3, §4, §5, §6, §7, §8

A-549 = experiment: Cancer cell growth inhibition, A-549; format: cell-based; conditions: Homo sapiens, A549; Lung, A-549, cell viability, 72 h
Method: as §1, §2, §3, §4, §5, §6, §7, §8

NCI-H1975 = experiment: Cancer cell growth inhibition, NCI-H1975; format: cell-based; conditions: Homo sapiens; Lung, NCI-H1975, cell viability, 72 h
Method: as §1, §2, §3, §4, §5, §6, §7, §8

NCI-H358 = experiment: Cancer cell growth inhibition, NCI-H358; format: cell-based; conditions: Homo sapiens; Lung, NCI-H358, cell viability, 72 h
Method: as §1, §2, §3, §4, §5, §6, §7, §8

HT-1080 = experiment: Cancer cell growth inhibition, HT-1080; format: cell-based; conditions: Homo sapiens; HT-1080, cell viability, 72 h
Method: as §1, §2, §3, §4, §5, §6, §7, §8

MiaPaCa-2 = experiment: Cancer cell growth inhibition, MiaPaCa-2; format: cell-based; conditions: Homo sapiens, MIA PaCa-2; Pancreatic, MiaPaCa-2, cell viability, 72 h
Method: as §1, §2, §3, §4, §5, §6, §7, §8

Panc-1 = experiment: Cancer cell growth inhibition, Panc-1; format: cell-based; conditions: Homo sapiens; Pancreatic, Panc-1, cell viability, 72 h
Method: as §1, §2, §3, §4, §5, §6, §7, §8

BxPC3 = experiment: Cancer cell growth inhibition, BxPC3; format: cell-based; conditions: Homo sapiens, BXPC-3; Pancreatic, BxPC3, cell viability, 72 h
Method: as §1, §2, §3, §4, §5
as §6, with “PBS. […]” for “PBS.”

MDA-MB-435 = experiment: Cancer cell growth inhibition, MDA-MB-435; format: cell-based; conditions: Homo sapiens; Melanoma, MDA-MB-435, cell viability, 72 h
Method: as §1, §2, §3, §4, §5, §6, §7, §8

Daoy = experiment: Cancer cell growth inhibition, Daoy; format: cell-based; conditions: Homo sapiens, Brain, cell viability, 72 h
Method: as §1, §2, §3, §4, §5, §6, §7, §8

U-373MG = experiment: Cancer cell growth inhibition, U-373MG; format: cell-based; conditions: Homo sapiens, U373 MG, Brain, cell viability, 72 h
Method: as §1, §2, §3, §4, §5
as §6, with “PBS. […]” for “PBS.”

U-87MG = experiment: Cancer cell growth inhibition, U-87MG; format: cell-based; conditions: Homo sapiens, Brain, cell viability, 72 h
Method: as §1, §2, §3, §4, §5, §6, §7, §8

HeLa = experiment: Cancer cell growth inhibition, HeLa; format: cell-based; conditions: Homo sapiens, Cervical, cell viability, 72 h
Method: as §1, §2, §3, §4, §5
as §6, with “PBS. […]” for “PBS.”

A-431 = experiment: Cancer cell growth inhibition, A-431; format: cell-based; conditions: Homo sapiens; Epidermoid, A-431, cell viability, 72 h
Method: as §1, §2, §3, §4, §5, §6, §7, §8

CCFR-CEM = experiment: Cancer cell growth inhibition, CCFR-CEM; format: cell-based; conditions: Hematologic, cell viability, 72 h
Method: as §1, §2, §3, §4, §5, §6, §7, §8

Jurkat = experiment: Cancer cell growth inhibition, Jurkat; format: cell-based; conditions: Homo sapiens, Hematologic, cell viability, 72 h
Method: as §1, §2, §3, §4, §5, §6, §7, §8

RAMOS = experiment: Cancer cell growth inhibition, RAMOS; format: cell-based; conditions: Homo sapiens, Hematologic, cell viability, 72 h
Method: as §1, §2, §3, §4, §5, §6, §7, §8

T1 sequence (P26358 2-1632 isoform P26358-2): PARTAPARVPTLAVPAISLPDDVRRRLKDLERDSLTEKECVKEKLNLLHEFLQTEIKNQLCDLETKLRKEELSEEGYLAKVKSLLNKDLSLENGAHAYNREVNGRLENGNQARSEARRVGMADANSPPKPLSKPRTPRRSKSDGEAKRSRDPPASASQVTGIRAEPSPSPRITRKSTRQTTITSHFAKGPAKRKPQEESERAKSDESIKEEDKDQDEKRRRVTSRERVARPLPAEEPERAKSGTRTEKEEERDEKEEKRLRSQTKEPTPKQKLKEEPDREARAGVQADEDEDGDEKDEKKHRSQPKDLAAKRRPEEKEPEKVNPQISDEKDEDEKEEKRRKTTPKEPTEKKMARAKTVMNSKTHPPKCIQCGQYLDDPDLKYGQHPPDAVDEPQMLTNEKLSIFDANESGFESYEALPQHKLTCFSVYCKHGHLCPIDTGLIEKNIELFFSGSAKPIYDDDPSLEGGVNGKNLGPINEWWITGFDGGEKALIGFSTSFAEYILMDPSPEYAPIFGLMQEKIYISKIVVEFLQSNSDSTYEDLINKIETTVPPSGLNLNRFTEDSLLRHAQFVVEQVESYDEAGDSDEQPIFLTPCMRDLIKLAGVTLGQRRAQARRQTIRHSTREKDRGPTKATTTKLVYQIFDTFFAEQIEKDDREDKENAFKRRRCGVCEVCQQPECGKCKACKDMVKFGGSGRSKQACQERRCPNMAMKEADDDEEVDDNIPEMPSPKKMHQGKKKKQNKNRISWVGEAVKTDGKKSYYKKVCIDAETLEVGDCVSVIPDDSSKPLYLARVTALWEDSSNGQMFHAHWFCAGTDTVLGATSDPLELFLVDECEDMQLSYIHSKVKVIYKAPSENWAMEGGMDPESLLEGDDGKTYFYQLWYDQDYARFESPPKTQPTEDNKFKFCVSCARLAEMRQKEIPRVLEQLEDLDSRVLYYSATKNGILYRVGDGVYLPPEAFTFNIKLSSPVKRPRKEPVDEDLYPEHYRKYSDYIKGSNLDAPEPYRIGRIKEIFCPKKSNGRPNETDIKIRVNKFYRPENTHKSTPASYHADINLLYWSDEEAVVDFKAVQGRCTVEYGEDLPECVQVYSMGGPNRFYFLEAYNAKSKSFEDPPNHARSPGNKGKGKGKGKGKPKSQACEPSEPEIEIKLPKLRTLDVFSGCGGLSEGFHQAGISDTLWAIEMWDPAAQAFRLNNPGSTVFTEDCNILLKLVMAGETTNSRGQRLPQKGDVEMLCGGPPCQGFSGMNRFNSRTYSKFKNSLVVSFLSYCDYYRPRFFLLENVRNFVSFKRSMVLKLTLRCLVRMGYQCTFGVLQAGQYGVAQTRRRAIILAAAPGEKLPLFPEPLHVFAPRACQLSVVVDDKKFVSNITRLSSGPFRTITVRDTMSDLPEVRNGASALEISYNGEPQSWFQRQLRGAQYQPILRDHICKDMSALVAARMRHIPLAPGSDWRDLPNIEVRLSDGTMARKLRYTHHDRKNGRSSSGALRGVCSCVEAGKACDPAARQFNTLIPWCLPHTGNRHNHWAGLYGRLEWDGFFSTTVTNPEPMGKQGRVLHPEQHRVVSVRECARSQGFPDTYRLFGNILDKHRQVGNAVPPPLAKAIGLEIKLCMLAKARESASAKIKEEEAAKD

IC50 (Human DNMT1): 13.8 µM | EC50 (MCF-7): 30 µM | EC50 (SK-BR-3): 20 µM | EC50 (LnCaP): 28 µM | EC50 (HCT-116): 51 µM | EC50 (A-549): 97 µM | EC50 (NCI-H1975): 46 µM | EC50 (NCI-H358): 11 µM | EC50 (HT-1080): 31 µM | EC50 (MiaPaCa-2): 66 µM | EC50 (Panc-1): 27 µM | EC50 (BxPC3): 53 µM | EC50 (MDA-MB-435): 14 µM | EC50 (Daoy): 47 µM | EC50 (U-373MG): 21 µM | EC50 (U-87MG): 20 µM | EC50 (HeLa): 36 µM | EC50 (A-431): 30 µM | EC50 (CCFR-CEM): 45 µM | EC50 (Jurkat): 24 µM | EC50 (RAMOS): 51 µM
Structure (SMILES): COc1ccc2c(-c3ccc(O)c(O)c3)cn(CC(=O)c3ccc(O)c(O)c3)c2c1 [Example 4, 1-(3,4-dihydroxyphenyl)-2-[3-(3,4-dihydroxyphenyl)-6-methoxy-1H-indol-1-yl]ethanone]
